From article PMC9067983, “Identification of highly selective type II kinase inhibitors with chiral peptidomimetic tails” (Journal of Enzyme Inhibition and Medicinal Chemistry, 2022)
pIC50: −log10 of the molar value. Where a SMILES comes first, the peptide text is derived from it. [ ]: non-standard residue; d: D form. The star is where a group is joined. X1 = Cc1ccc(Nc2ncc3c(n2)N(C)C(=O)N(c2cc(C(=O)*)ccc2C)C3)cn1; Aib = CC(C)(N)C(=O)O

Legend:
Lck (Y394) = test: Western blot of p-Lck (Y394) in anti-CD3-treated Jurkat cells; type: cell-based; conditions: anti-CD3-treated Jurkat T cells, 10, 50, or 100 μM, 30 min
Method: Figure 6. Effect of 7a on the Lck (Y394) activation in anti-CD3-treated Jurkat cells. After treatment with CD3 antibody for coating in plates, cells were seeded and then treated with various concentrations of 7a (10, 50, or 100 μM) or A770041 (1 μM) used as a positive control. The phosphorylation of Lck tyrosine in Jurkat cells was activated by anti-CD3 mAb. Total cellular protein was resolved by SDS-PAGE, transferred to PVDF membranes, and detected with specific p-Lck (Y394) antibody. β-Actin was used as an internal control.
Jurkat cells were purchased from the Korea Cell Line Bank (Seoul, Republic of Korea) and maintained in RPMI-1640 medium containing 10% FBS, streptomycin sulphate, penicillin, HEPES, and sodium bicarbonate in a 5% CO2 atmosphere at 37 °C. Jurkat cells were stimulated with 1 μg/ml of plate-bound anti-CD3 mAb (clone HIT3a, BD Bioscience) and then incubated with KITS 1–001 (10, 50, or 100 μM) for 30 min.
The protein of Jurkat cells was extracted using a PRO-PREP (Intron Biotechnology, Seoul, Republic of Korea). The protein concentration was determined using Bio-Rad protein assay reagent according to the manufacturer’s instruction and BSA (Bio-Rad, Hercules, CA, USA) was used as a standard for quantification. […] The membranes were analysed using an enhanced chemiluminescence (ECL) substrate and imaged by LAS-4000 luminescent image analyser (FUJIFILM, Tokyo, Japan).

Abl1 = target: T1, Abl1 (Homo sapiens, UniProt P00519); test: In vitro kinase assay (IC50); type: biochemical
T1 construct: purchased Reaction Biology Corp
T1 sequence (P00519 whole entry): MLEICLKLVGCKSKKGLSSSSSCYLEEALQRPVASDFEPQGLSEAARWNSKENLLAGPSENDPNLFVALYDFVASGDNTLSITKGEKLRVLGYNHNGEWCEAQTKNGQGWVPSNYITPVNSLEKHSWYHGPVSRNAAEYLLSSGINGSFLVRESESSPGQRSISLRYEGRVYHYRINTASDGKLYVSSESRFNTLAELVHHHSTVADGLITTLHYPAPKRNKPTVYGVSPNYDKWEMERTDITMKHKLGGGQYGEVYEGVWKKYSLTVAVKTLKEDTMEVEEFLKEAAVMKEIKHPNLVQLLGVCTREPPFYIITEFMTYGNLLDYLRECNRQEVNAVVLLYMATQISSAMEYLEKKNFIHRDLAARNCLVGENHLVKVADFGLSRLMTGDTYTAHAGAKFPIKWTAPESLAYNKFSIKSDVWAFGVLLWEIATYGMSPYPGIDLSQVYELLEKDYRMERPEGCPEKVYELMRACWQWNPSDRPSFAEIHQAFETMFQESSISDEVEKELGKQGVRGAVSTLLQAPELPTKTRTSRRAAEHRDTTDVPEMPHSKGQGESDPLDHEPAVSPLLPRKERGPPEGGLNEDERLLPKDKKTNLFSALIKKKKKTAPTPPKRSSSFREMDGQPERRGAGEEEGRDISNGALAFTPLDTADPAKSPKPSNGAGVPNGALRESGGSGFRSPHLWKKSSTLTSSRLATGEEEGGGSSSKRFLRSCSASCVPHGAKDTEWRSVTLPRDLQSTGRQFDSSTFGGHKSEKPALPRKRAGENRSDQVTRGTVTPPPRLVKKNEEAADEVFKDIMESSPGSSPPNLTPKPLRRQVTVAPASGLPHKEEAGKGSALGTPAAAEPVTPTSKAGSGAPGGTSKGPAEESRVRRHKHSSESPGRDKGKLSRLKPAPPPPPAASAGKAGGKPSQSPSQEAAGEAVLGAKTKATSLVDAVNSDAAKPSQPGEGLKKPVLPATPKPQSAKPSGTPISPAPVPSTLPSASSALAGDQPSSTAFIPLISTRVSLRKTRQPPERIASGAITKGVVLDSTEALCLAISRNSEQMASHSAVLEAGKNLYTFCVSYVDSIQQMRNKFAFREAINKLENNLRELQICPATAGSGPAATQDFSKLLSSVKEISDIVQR
Method: (§1) Full panel kinase profiling and kinase IC50 measurement were performed by using Reaction Biology Corp. (San Diego, USA).

Blk = target: T2, Blk (Homo sapiens, UniProt P51451); test: In vitro kinase assay (IC50); type: biochemical
T2 construct: purchased Reaction Biology Corp
T2 sequence (P51451 whole entry): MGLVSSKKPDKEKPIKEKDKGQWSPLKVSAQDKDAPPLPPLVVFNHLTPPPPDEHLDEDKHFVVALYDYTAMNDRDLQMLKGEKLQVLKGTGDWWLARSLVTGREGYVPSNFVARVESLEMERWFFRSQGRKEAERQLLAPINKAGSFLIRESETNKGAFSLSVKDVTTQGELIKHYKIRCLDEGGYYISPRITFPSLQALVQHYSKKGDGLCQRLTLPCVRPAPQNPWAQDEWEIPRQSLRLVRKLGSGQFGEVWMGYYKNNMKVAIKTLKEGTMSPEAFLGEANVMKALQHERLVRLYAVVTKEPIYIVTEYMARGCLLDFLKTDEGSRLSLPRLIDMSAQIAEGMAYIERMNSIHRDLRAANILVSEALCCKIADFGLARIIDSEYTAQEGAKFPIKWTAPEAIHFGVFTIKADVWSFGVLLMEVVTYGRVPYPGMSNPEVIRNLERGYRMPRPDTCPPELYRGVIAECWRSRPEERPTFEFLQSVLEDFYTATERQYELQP
Method: as §1

Fgr = target: T3, Fgr (Homo sapiens, UniProt P09769); test: In vitro kinase assay (IC50); type: biochemical
T3 construct: purchased Reaction Biology Corp
Method: as §1

p38a = target: T4, p38a (Homo sapiens, UniProt Q16539); test: In vitro kinase assay (IC50); type: biochemical
T4 construct: purchased Reaction Biology Corp
T4 sequence (Q16539 whole entry): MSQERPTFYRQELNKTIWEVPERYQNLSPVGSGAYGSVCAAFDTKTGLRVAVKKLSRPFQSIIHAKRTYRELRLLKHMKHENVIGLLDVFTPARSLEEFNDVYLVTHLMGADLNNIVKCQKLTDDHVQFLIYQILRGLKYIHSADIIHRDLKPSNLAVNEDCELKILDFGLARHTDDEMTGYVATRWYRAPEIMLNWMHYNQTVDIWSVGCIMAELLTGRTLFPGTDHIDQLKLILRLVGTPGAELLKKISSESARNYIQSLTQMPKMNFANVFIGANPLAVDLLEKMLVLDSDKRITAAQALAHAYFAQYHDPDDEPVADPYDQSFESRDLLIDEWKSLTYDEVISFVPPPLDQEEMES
Method: as §1

BMX/ETK = target: T5, BMX/ETK (Homo sapiens, UniProt P51813); test: In vitro kinase assay (IC50); type: biochemical
T5 construct: purchased Reaction Biology Corp
T5 sequence (P51813 whole entry): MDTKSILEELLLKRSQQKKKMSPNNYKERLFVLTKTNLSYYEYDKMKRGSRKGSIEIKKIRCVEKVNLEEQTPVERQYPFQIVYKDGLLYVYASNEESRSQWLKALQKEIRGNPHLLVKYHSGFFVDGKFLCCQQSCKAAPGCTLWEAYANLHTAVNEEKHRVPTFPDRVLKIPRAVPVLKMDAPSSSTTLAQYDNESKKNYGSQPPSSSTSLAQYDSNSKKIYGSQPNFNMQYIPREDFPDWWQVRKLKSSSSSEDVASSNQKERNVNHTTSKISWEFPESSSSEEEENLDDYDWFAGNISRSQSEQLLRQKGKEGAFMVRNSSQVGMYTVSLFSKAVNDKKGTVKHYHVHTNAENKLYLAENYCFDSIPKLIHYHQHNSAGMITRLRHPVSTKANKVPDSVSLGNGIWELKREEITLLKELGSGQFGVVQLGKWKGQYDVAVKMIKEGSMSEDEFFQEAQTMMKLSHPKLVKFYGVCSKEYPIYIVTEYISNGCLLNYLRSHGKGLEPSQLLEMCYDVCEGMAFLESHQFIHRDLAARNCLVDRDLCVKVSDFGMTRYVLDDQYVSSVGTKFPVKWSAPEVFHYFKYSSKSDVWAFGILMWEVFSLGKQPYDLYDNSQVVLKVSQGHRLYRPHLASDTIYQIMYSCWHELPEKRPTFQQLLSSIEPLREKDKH
Method: as §1

DDR1 = target: T6, DDR1 (Homo sapiens, UniProt Q08345); test: In vitro kinase assay (IC50); type: biochemical
T6 construct: purchased Reaction Biology Corp
T6 sequence (Q08345 19-913): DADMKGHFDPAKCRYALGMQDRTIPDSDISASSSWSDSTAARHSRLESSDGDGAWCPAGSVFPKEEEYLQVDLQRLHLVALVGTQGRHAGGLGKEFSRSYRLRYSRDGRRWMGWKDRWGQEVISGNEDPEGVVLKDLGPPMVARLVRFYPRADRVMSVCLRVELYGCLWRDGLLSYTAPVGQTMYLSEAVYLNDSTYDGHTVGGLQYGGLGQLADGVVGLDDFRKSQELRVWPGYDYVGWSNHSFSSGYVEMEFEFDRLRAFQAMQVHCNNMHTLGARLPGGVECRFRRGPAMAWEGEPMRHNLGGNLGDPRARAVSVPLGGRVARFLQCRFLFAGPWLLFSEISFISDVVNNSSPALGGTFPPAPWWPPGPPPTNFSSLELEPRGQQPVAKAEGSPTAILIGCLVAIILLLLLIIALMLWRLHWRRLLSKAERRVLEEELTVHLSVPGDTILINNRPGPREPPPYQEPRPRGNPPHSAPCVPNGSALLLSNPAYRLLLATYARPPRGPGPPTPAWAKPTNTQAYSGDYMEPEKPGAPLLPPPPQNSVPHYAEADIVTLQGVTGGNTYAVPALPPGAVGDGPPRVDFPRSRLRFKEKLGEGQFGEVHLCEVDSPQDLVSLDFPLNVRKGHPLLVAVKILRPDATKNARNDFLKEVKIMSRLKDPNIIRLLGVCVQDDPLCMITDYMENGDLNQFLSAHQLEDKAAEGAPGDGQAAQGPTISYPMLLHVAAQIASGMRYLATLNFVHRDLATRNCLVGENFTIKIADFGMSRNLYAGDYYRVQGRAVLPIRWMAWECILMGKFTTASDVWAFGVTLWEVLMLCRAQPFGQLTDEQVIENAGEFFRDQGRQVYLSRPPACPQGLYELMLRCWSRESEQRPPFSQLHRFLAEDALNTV
Method: as §1

Lyn = target: T7, Lyn (Homo sapiens, UniProt P07948); test: In vitro kinase assay (IC50); type: biochemical
T7 construct: purchased Reaction Biology Corp
T7 sequence (P07948 whole entry): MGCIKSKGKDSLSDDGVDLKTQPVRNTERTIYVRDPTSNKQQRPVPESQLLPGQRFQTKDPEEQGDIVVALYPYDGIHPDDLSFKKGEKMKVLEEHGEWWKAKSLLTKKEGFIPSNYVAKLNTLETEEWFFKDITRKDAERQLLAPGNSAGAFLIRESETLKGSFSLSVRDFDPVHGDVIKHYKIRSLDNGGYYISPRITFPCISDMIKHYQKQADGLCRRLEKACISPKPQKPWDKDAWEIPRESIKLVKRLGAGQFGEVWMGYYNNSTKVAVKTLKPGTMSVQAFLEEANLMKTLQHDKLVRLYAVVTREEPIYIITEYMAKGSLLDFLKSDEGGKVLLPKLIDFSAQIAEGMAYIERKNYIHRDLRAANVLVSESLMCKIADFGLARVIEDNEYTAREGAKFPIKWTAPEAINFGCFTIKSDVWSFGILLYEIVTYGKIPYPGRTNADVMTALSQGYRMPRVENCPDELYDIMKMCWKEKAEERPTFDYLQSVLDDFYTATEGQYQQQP
Method: as §1

Lck = target: T8, Lck (Homo sapiens, UniProt P06239); test: In vitro kinase assay (IC50); type: biochemical
T8 construct: purchased Reaction Biology Corp
T8 sequence (P06239 whole entry): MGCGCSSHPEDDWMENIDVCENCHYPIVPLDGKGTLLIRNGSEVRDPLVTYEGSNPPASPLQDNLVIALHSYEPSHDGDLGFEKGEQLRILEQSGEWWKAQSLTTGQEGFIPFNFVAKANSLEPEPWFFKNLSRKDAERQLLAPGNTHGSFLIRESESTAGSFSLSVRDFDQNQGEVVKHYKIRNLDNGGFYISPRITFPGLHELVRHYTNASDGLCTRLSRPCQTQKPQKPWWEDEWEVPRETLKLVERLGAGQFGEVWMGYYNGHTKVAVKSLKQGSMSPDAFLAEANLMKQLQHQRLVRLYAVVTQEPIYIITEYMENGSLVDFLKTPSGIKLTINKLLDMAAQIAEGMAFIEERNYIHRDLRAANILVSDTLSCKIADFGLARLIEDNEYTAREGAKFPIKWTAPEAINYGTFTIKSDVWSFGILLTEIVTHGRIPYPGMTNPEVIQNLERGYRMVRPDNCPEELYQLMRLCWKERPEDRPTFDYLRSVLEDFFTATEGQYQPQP
Method: as §1

Yes = target: T9, Yes (Homo sapiens, UniProt P07947); test: In vitro kinase assay (IC50); type: biochemical
T9 construct: purchased Reaction Biology Corp
Method: as §1

Cc1ccc(Nc2ncc3c(n2)N(C)C(=O)N(c2cc(C(=O)N[C@H](C(=O)N4CCC[C@H]4C(=O)NC(C)(C)C(=O)N[C@@H](CC(C)C)C(=O)N(C)C)C(C)C)ccc2C)C3)cn1 [7a, (S)-N-(1-(((S)-1-(dimethylamino)-4-methyl-1-oxopentan-2-yl)amino)-2-methyl-1-oxopropan-2-yl)-1-((4-methyl-3-(1-methyl-7-((6-methylpyridin-3-yl)amino)-2-oxo-1,4-dihydropyrimido[4,5-d]pyrimidin-3(2H)-yl)benzoyl)-L-valyl)pyrrolidine-2-carboxamide] (X1-VP[Aib]L-NMe2)
phosphorylated Lck levels at tyrosine 394 (Lck (Y394)): markedly reduced the phosphorylated Lck levels at tyrosine 394 residue in a concentration-dependent manner | pIC50 (Abl1): 6.42 | pIC50 (Blk): 6.60 | pIC50 (Fgr): 6.70 | pIC50 (p38a): < 5.00 | pIC50 (BMX/ETK): 6.53 | pIC50 (DDR1): 6.96 | pIC50 (Lyn): 6.17 | pIC50 (Lck): 7.64 | selectivity for Lck over c-Src (Lck): over 10 fold | Lck selectivity over c-Src (c-Src IC50 / Lck IC50) (Lck; Table 2): 37 | pIC50 (Yes): 6.31
